Experiments:
[1] = tested on: p21; assay: p21 expression in HUVECs, western blot; assay type: cell-based, human; settings: HUVECs at PDL11, 1 or 2 μM; FIG. 3B
Procedure: (§1) For the population doubling (PD) assay, HUVECs (1×10^5 cells/3.5 cm dish) were propagated in the presence of DMSO (i.e., control) or PN6 (1 or 2 μM) until senescence (Day 41), and the cell numbers in each passage were recorded to generate a growth curve that represented the cumulative population doubling. The population doubling levels (PDLs) of HUVECs were calculated in every culture to indicate the proliferation capacity of HUVECs under the respective conditions. The population doublings (PDs) were estimated using the equation: PDL=3.32 (log (total viable cells at harvest/total viable cells at seeding). Also, HUVECs at passages PDL4 and PDL11 cultured in 0 μM (i.e., DMSO alone), 1 μM, or 2 μM PN6 were harvested for further analyses (e.g., western blot and SA-β-gal staining).
Cells were harvested with a 1.25× Laemmli buffer and lysed in RIPA lysis buffer containing 1% of Triton X-100 and a protease inhibitor cocktail, and total protein concentrations were measured with a protein assay kit. Proteins in the samples of the lysates with the same amounts of total protein were separated by sodium dodecyl sulfate polyacrylamide gel electrophoresis (SDS-PAGE) (10% polyacrylamide gels) and analyzed by immunoblotting. […] Protein quantification was performed by software.

[2] = tested on: aged C57BL/6J mice; assay: Grip strength test; assay type: in vivo, mouse; settings: forelimbs, hindlimbs and all four limbs; mid-term and long-term; versus SD group; FIGS. 4E-4G
Procedure: The grip strength of the male C57BL/6J mice was measured at 87 weeks (mid-term) and 111 weeks (long-term) of age using an adjustable metallic grid mounted with a force sensor (DTG-5, DigiTech, JP). To conduct the test, the mice were placed on the aforementioned test device and were held gently by the tail, allowing them to grip the grid with forelimbs, hindlimbs, or four limbs (for measuring 2-paw and 4-paw grip strength, respectively). The device automatically measured and recorded the peak force in grams (g). Five trials were performed for each test, and the mean values were used to determine the grip strength of each mouse. Mid-term: SD, n=30; PN6, n=8; long-term: SD, n=23; PN6, n=8.

[3] = tested on: HUVECs; assay: Population doubling (PD) assay; assay type: cell-based, human; settings: 1 or 2 μM; FIG. 3A
Procedure: as §1

[4] = tested on: tor1Δ deletion strain of yeast; assay: RLS of tor1Δ deletion strain; assay type: cell-based, Saccharomyces cerevisiae; settings: data not shown
[5] = tested on: yeast MEP strain ZHY2; assay: Mother enrichment program (MEP) assay; assay type: cell-based, Saccharomyces cerevisiae; settings: 0-100 μM PN6, particularly above 10 μM; FIGS. 1A-1D
Procedure: The MEP strain ZHY2 cells were cultured at 30° C. overnight in liquid yeast 5 extract peptone dextrose (YEPD) medium containing 0, 0.1, 0.5, 2, 10, 25, 50, or 100 μM PN6, and the cultures were diluted to A600=0.25 and recovered to the log phase. Cultures were counted and inoculated in culture tubes at a cell density of 2×10^3 cells/ml. Estradiol was added to the mixtures to achieve a final concentration of 1 μM, and the mixtures were incubated in a roller drum at 50 rpm and 30° C. for 60 hours. Each group was monitored by harvesting samples at the indicated time points. The collected samples were washed and plated in solid YEPD media without estradiol, and the viability is reported as CFUs per 500 μl. The software OpenCFU 3.8 was used to calculate colonies.

[6] = tested on: aged C57BL/6J mice; assay: Rotarod test; assay type: in vivo, mouse; settings: rotarod at constant or accelerating speed; mid-term and long-term; versus SD-fed mice; FIGS. 4H-4I
Procedure: The male C57BL/6J mice were subjected to a rotarod test at 88 weeks (mid-term) and 112 weeks (long-term) of age. The mice underwent a 3-day habituation period, during which they were placed on the rotarod at a constant speed (4 rpm), and were required to remain on the rotarod for 1 minute at a time every day. To conduct the actual test, each mouse was subjected to five trials, with a 10-15 minute rest period between each trial. For each trial, the tests for the constant and accelerated speeds were conducted sequentially according to the following schedule: During a 5-minute trial period, a run consisted of an initial constant rotating speed of 4 rpm and a subsequent accelerated rotating speed accelerated from 4 to 40 rpm was performed 5 times. […] The latency to falling was recorded, and the average latency to falling was calculated for each trial. Data are presented as the average of the 5 trials. Mid-term: SD, n=30; PN6, n=8; long-term: SD, n=22; PN6, n=8.

[7] = tested on: aged C57BL/6J mice; assay: Metabolic breath analysis test; assay type: in vivo, mouse; settings: versus SD
Procedure: The metabolic breath analysis test was carryout out using the OxyletPro System. The male C57BL/6J mice fed a standard rodent chow with or without 50 mg/kg PN6 for 22 weeks (at 72 weeks of age; mid-term) were placed in the metabolic cages of the OxyletPro System for a 24-hour habituation period before actual recordings and remained in the cages for the following 48 hours. The OxyletPro System was equipped with an air supply and switching unit that provided independent flow control to the cage and collected the products produced therein. The gas analyzer was connected in tandem to the OxyletPro System for O2 and CO2 concentration analyses, from which the oxygen consumption (VO2), the carbon dioxide production (VCO2), and the energy expenditure (EE) were automatically calculated. SD, n=12; PN6, n=7.

CCC(CC[C@@H](C)C1CCC2C3CC(=O)[C@H]4C[C@@H](O)CC[C@]4(C)C3CC[C@@]21C)C(C)C (stereo in doubt) [PN6, (24S)-3β-hydroxy-5α-stigmastan-6-one]
p21 expression level [1]: decreased dose-dependently | grip strength [2]: increased grip strength | population doubling level (PDL) of HUVECs [3]: increase the PDL | ability to increase yeast RLS upon deletion of the TOR1 gene [4]: not affected | viability of yeast ZHY2 [5]: increased proportionally with the concentration of PN6 | motor skills (latency to falling) [6]: steadily improved | rate of O2 consumption ([7]; FIG. 4L): significantly higher | rate of CO2 elimination ([7]; FIG. 4M): significantly higher | respiratory quotient ([7]; FIG. 4N): higher | energy expenditure ([7]; FIG. 4O): higher
